Test results from patent publication US20040177664A1, “Production of a high quality organic-based fertilizer” (priority 2003, published 2004).
“And” between values parts separate entries of the source, which are not always exact repeats. Equal values may be shown once.

Experiments:
[1] = Influence of additives on sludge pH; assay type: physicochemical; conditions: for sludge pH: 0.5 g of each additive on about 5 g sludge
Procedure: The influence of different additives on the sludge pH was also evaluated.
Influence of Additives on Sludge PH
Treatments with urea, CaSO4, CaO

[2] = Odor reduction of municipal sludge, headspace GC-MS and odor; design: reducing odor / Relative reduction of peak area: concentration or dose not given beside the values; conditions: for reducing odor: oxidizing agents, general statement
Procedure: Effectiveness of the treatments was evaluated through the GC-MS analysis of the treated and untreated sludge. Sludge (5.0 g) was placed into a 44 ml vial. After heating to 60.0° C. for 5.0 minutes a probe of gas was taken from the vial (0.5 ml) and injected into the GC-MS.
Hewlett-Packard (HP) GC 5890 coupled with an HP 5971 mass-spectrometer. The system incorporates an electron beam as an ion source. Ions are filtered through a glass with silver-coated quadruples.
A DB5MS capillary chromatographic column is used and the MS is tuned with PFTBA in a Scan Mode (tune file: BFB.U).
For further characterization the peak area of the 94-ion was selected. The calibration was performed using dimethyldisulfide. A calibration curve is presented in the attached data.
In the first series, 6.00 g (±0.05) of the sludge with the addition of 10.0 ml of distilled water was used. For the treatment, we used potential oxidizers such as KNO3 and H2SO4 in different combinations.
In the second series we used 5.00 g (±0.01) of the sludge with no dilution. For the treatment we used additions of hydrogen peroxide (30%) −0.5 ml, sulfuric acid (98%), −0.5 ml, a combination of hydrogen peroxide and 0.5 ml and sulfuric acid 0. ml, ammonia (54%) −0.5ml, calcium hypochlorite −0.5 g.
The effectiveness of the additions is evaluated through decreasing the area of 94-ion signal with retention time around 1.94 minutes. We also investigated the influence of time.
The samples of the sludge (approximately 5.0 g) were placed into the vials and treated with additions of CaOCl2 at a temperature of 60.0° C.
The reproducibility of the treatment with calcium hypochlorite Ca(OCl)2 (CHC) on sludge was investigated. In all experiments, 5.0 g of sludge in a special vial was treated with an addition of percent of weight of odor reducer (0.05 g). After heating to 60.0° C. for 5.0 minutes, a sample of vapor over the sludge was taken and injected into the GC/MS. Total Ion Chromatograph signal with retention time […] were used for evaluation of the treatment corresponding to dimethylsulfide).

Row | Structure (SMILES) | sludge pH [1] | reducing odor [2] [%] | effect on sludge pH [1] | also measured
1 | [O]=[Ca] [CaO, calcium oxide] | 11.5 and 11.65 |  |  | sludge pH ([1]; listed as calcium oxide): 11.8
2 | [Ca+2].[O-]Cl.[O-]Cl [CaOCl2, calcium hypochlorite] |  | 98 | does not affect the sludge pH | Relative reduction of peak area ([2]; against untreated sludge 376025): 97.98% and 96.16% and 98.54% and 96.59% and 98.86% and 99.03% and 99.17% and 99.47%; Average Relative Reduction of the peak area ([2]; eight replicates, confidence interval 95%): 98.23% and 98.23±0.85%
3 | O=S(=O)([O-])[O-].[Ca+2] [CaSO4, Calcium sulfate] | 6.3 and 6.25 |  | does not change the sludge pH | 
4 | NC(N)=O [Urea] | 8.32 and 8.45 |  |  | 
5 | [K+].[O-]Cl [potassium hypochlorite] |  | 98 |  | 
